In patent publication US20090306149A1, “USE OF BIARYLCARBOXAMIES IN THE TREATMENT OF HEDGEHOG PATHWAY-RELATED DISORDERS” (priority 2006, published 2009):
pIC50: −log10 of the molar value. Read-outs that look alike come from different tables or passages of the source.

Legend:
[1] = tested on: gli-luciferase activity (Hh pathway) in TMHh12 cells; test: "IC50 shift" gli-luciferase reporter assay in TMHh12 cells with a small molecule Smo agonist; type: cell-based, mouse
Experimental: TM3 cells (mouse) transfected with a new proprietary reporter construct (pTA-8xGli-Luc). The pTA-8xGli-Luc reporter produces approx. 4 fold more luciferase activity than classical 8xGli-LUC. A highly responsive stable clone has been selected (TMHh12) with >10-fold signal/noise ratio and <10% CV in 384 well format.
“IC50 shift” assays in TMHh12 cells. IC50 for antagonism of gli-luciferase activity was tested in the presence of increasing concentrations of a small molecule agonist which binds to Smo with 1 nM affinity and activates the Hh pathway.
Table 1 lists the IC50 of antagonists determined in the presence of different (1 nM and 25 nM) concentrations of a small agonist of Smoothened.

[2] = target: Smoothened (Homo sapiens, UniProt Q99835); test: Smo binding assay, displacement of a small molecule agonist of Smoothened, filter binding format
Sequence of Smoothened (Q99835 28-787): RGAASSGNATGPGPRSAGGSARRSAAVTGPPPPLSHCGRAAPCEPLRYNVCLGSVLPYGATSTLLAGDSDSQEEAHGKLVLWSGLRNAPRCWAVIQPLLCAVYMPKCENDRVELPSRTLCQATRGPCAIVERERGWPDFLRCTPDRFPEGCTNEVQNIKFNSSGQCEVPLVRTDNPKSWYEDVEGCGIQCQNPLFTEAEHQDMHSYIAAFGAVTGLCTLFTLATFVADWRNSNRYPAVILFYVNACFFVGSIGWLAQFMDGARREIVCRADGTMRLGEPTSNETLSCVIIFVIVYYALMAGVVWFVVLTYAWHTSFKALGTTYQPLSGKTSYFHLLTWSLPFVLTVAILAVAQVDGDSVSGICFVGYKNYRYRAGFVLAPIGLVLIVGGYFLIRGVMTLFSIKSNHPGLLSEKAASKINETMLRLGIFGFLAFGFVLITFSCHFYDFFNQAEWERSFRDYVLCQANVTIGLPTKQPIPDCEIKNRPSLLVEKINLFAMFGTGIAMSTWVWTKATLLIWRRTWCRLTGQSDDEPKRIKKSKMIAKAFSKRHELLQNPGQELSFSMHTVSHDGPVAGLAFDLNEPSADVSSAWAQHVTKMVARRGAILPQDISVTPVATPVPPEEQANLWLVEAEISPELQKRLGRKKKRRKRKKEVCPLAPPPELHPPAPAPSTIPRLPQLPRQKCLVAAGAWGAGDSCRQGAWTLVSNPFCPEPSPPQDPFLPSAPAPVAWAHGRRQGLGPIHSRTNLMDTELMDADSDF
Text: A Smo binding assay was developed using radio-labeled smoothened agonist for compound competition.
Table 1, infra; lists the IC50 for displacement of a small molecule agonist of Smoothened determined in a filter binding format.

[3] = Mus musculus, TMHh12, TMHh12 cells, 1 nM small molecule Smo agonist, read-out: Gli_luc (1 nM Smo agonist) IC50
[4] = Mus musculus, TMHh12, TMHh12 cells, 25 nM small molecule Smo agonist, read-out: Gli_luc (25 nM Smo agonist) IC50

Structure (SMILES)	pIC50 [1, 3]	pIC50 [1, 4]	pIC50 [2]	pIC50 ([1]; TMHh12 cells, 1 nM small molecule Smo agonist, read-out: Gli_luc (1 nM Smo agonist) IC50)	pIC50 ([1]; TMHh12 cells, 25 nM small molecule Smo agonist, read-out: Gli_luc (25 nM Smo agonist) IC50)
O=C(Nc1ccc2c(c1)CC(NS(=O)(=O)NC1CCCCC1)C2)c1ccccc1-c1ccc(C(F)(F)F)cc1 (stereo not drawn) [Example 87]	5.68	5.59	–	–	–
Cc1cc(C)c(-c2ccc(C(F)(F)F)cc2)c(C(=O)Nc2ccc3c(c2)CC(NCc2ccsc2)C3)c1 (stereo not drawn) [Example 35]	–	–	6.68	–	–
Cc1cccc(C(=O)Nc2ccc3c(c2)CC(NCC2CCCCC2)C3)c1-c1ccc(C(F)(F)F)cc1 (stereo not drawn) [Example 50]	6.05	4.93	6.21	–	–
CCOC(=O)NC1CCc2ccc(NC(=O)c3cccc(C)c3-c3ccc(C(F)(F)F)cc3)cc2CC1 (stereo not drawn) [Example 84]	6.15	5.35	6.06	–	–
Cc1cccc(C(=O)Nc2ccc3c(c2)C[C@@H](NCc2cccnc2Cl)C3)c1-c1ccc(C(F)(F)F)cc1 [Example 30]	6.87	5.84	7.41	–	–
Cc1cccc(C(=O)Nc2ccc3c(c2)C[C@@H](NCc2cncn2C)C3)c1-c1ccc(C(F)(F)F)cc1 [Example 16]	6.23	5.43	–	–	–
Cc1cccc(C(=O)Nc2ccc3c(c2)C[C@@H](NCc2ccc4c(c2)OC(F)(F)O4)C3)c1-c1ccc(C(F)(F)F)cc1 [Example 25]	6.39	5.60	7.05	–	–
Cc1cccc(C(=O)Nc2ccc3c(c2)CCC(NS(=O)(=O)c2cccs2)CC3)c1-c1ccc(C(F)(F)F)cc1 (stereo not drawn) [Example 105]	6.08	4.69	6.47	–	–
Cc1cccc(C(=O)Nc2ccc3c(c2)C[C@@H](N(C)Cc2ccccn2)C3)c1-c1ccc(C(F)(F)F)cc1 [Example 38]	5.76	4.88	5.20	–	–
Cc1cccc(C(=O)Nc2ccc3c(c2)CCC(NS(C)(=O)=O)CC3)c1-c1ccc(C(F)(F)F)cc1 (stereo not drawn) [Example 103]	5.32	4.99	5.49	–	–
CCCCS(=O)(=O)NC1Cc2ccc(NC(=O)c3cccc(C)c3-c3ccc(C(F)(F)F)cc3)cc2C1 (stereo not drawn) [Example 86]	–	–	6.58	–	–
Cc1cccc(C(=O)Nc2ccc3c(c2)C[C@@H](NCc2ccc(-n4ccnc4)cc2)C3)c1-c1ccc(C(F)(F)F)cc1 [Example 28]	7.92	6.32	8.70	–	–
Cc1cccc(C(=O)Nc2ccc3c(c2)CC(NS(=O)(=O)c2ccc(Cl)s2)C3)c1-c1ccc(C(F)(F)F)cc1 (stereo not drawn) [Example 85]	–	–	7.92	–	–
Cc1csc(CN[C@H]2Cc3ccc(NC(=O)c4cccc(C)c4-c4ccc(C(F)(F)F)cc4)cc3C2)n1 [Example 5, 6-Methyl-4′-trifluoromethyl-biphenyl-2-carboxylic acid {(S)-2-[(4-methyl-thiazol-2-ylmethyl)-amino]-indan-5-yl}-amide]	> 8.30	6.86	8.52	–	–
O=C(Nc1ccc2c(c1)C[C@@H](NCc1ccccn1)C2)c1cccc(C(F)(F)F)c1-c1ccc(C(F)(F)F)cc1 [Example 46]	6.08	5.41	–	–	–
O=C(Nc1ccc2c(c1)CC(NCc1ccccn1)C2)c1cccc(C(F)(F)F)c1-c1ccc(C(F)(F)F)cc1 (stereo not drawn) [Example 37]	5.53	4.96	–	–	–
Cc1cccc(C(=O)Nc2ccc3c(c2)CCC(NS(=O)(=O)c2ccccc2F)CC3)c1-c1ccc(C(F)(F)F)cc1 (stereo not drawn) [Example 106]	5.23	–	6.48	–	–
COC(=O)C1(CNC2Cc3ccc(NC(=O)c4ccccc4-c4ccc(C(F)(F)F)cc4)cc3C2)CCCC1 (stereo not drawn) [Example 42]	5.59	–	–	–	–
Cc1nc(CN[C@H]2Cc3ccc(NC(=O)c4cccc(C)c4-c4ccc(C(F)(F)F)cc4)cc3C2)cs1 [Example 9]	7.41	6.06	–	–	–
Cc1cccc(C(=O)Nc2ccc3c(c2)CC(NCc2nccs2)C3)c1-c1ccc(C(F)(F)F)cc1 (stereo not drawn) [Example 72]	7.42	6.18	–	–	–
Cc1cccc(C(=O)Nc2ccc3c(c2)CC(NS(=O)(=O)c2cccs2)C3)c1-c1ccc(F)cc1 (stereo not drawn) [Example 94]	5.18	–	–	–	–
O=C(Nc1ccc2c(c1)CC(NS(=O)(=O)c1cccs1)C2)c1c(F)cccc1-c1ccc(C(F)(F)F)cc1 (stereo not drawn) [Example 97]	5.87	–	–	–	–
Cc1cccc(C(=O)Nc2ccc3c(c2)C[C@@H](NCc2nccn2C)C3)c1-c1ccc(C(F)(F)F)cc1 [Example 18]	7.41	6.06	–	–	–
O=C(Nc1ccc2c(c1)CCC2NCc1cccs1)c1ccccc1-c1ccc(C(F)(F)F)cc1 (stereo not drawn) [Example 39]	6.16	5.43	–	–	–
Cc1cccc(C(=O)Nc2ccc3c(c2)C[C@@H](NCc2ncc[nH]2)C3)c1-c1ccc(C(F)(F)F)cc1 [Example 17]	5.86	4.81	–	–	–
O=C(Nc1ccc2c(c1)CC(NS(=O)(=O)c1ccccc1)C2)c1ccccc1-c1ccc(Cl)cc1 (stereo not drawn) [Example 96]	5.83	–	–	–	–
Cc1cccc(C(=O)Nc2ccc3c(c2)C[C@@H](NCC2CCOC2)C3)c1-c1ccc(C(F)(F)F)cc1 (stereo partly drawn) [Example 33]	5.34	4.78	–	–	–
O=C(Nc1ccc2c(c1)CC(NS(=O)(=O)c1cccs1)C2)c1ccc(F)cc1-c1ccc(C(F)(F)F)cc1 (stereo not drawn) [Example 90]	5.26	–	–	–	–
CCCS(=O)(=O)NC1Cc2ccc(NC(=O)c3cccc(C)c3-c3ccc(C(F)(F)F)cc3)cc2C1 (stereo not drawn) [Example 93]	5.47	–	–	–	–

Results, then the compound that gave them:

pIC50 [1, 3]	pIC50 [1, 4]	pIC50 [2]	pIC50 ([1]; TMHh12 cells, 1 nM small molecule Smo agonist, read-out: Gli_luc (1 nM Smo agonist) IC50)	pIC50 ([1]; TMHh12 cells, 25 nM small molecule Smo agonist, read-out: Gli_luc (25 nM Smo agonist) IC50)	Structure (SMILES)
8.30	6.63	7.96	–	–	Cc1cccc(C(=O)Nc2ccc3c(c2)CC(NCc2ccccc2F)C3)c1-c1ccc(C(F)(F)F)cc1 (stereo not drawn) [Example 71]
6.04	4.85	–	–	–	Cc1cccc(C(=O)Nc2ccc3c(c2)C[C@@H](NS(=O)(=O)c2ccccn2)C3)c1-c1ccc(C(F)(F)F)cc1 [Example 101]
5.88	–	–	–	–	COc1cccc(C(=O)Nc2ccc3c(c2)CC(NC(=O)c2ccccc2)C3)c1-c1ccc(C(F)(F)F)cc1 (stereo not drawn) [Example 79]
5.85	–	–	–	–	Cc1cccc(C(=O)Nc2ccc3c(c2)CC(NS(=O)(=O)c2cccs2)C3)c1-c1ccc(C(F)(F)F)cc1 (stereo not drawn) [Example 95]
7.04	6.00	–	–	–	Cc1cccc(C(=O)Nc2ccc3c(c2)CC(NCc2ccccc2)C3)c1-c1ccc(C(F)(F)F)cc1 (stereo not drawn) [Example 55]
6.60	6.19	9.00	–	–	COc1ccc(OC)c(CN[C@H]2Cc3ccc(NC(=O)c4cccc(C)c4-c4ccc(C(F)(F)F)cc4)cc3C2)c1 [Example 21]
6.46	5.52	7.03	–	–	COc1ccc(CN[C@H]2Cc3ccc(NC(=O)c4cccc(C)c4-c4ccc(C(F)(F)F)cc4)cc3C2)cc1 [Example 23]
> 8.30	6.43	7.85	–	–	Cc1cccc(C(=O)Nc2ccc3c(c2)C[C@@H](NCc2ccco2)C3)c1-c1ccc(C(F)(F)F)cc1 [Example 11]
6.11	5.90	–	–	–	Cc1cccc(C(=O)Nc2ccc3c(c2)CC(NC(=O)c2ccccc2)C3)c1-c1ccc(C(F)(F)F)cc1 (stereo not drawn) [Example 76]
> 8.30	6.32	7.74	–	–	Cc1cccc(C(=O)Nc2ccc3c(c2)C[C@@H](NCc2cccn2C)C3)c1-c1ccc(C(F)(F)F)cc1 [Example 15]
7.07	5.94	6.85	–	–	Cc1cccc(C(=O)Nc2ccc3c(c2)CC(NCc2ccccn2)C3)c1-c1ccc(C(F)(F)F)cc1 (stereo not drawn) [Example 45]
7.92	6.22	–	–	–	Cc1cccc(C(=O)Nc2ccc3c(c2)C[C@H](NCc2ccccc2)C3)c1-c1ccc(C(F)(F)F)cc1 [Example 27]
–	–	–	5.80	5.22	O=C(Nc1ccc2c(c1)CC(NCc1ccccn1)C2)c1cccc(C(F)(F)F)c1-c1ccc(C(F)(F)F)cc1 (stereo not drawn) [Example 47]
5.85	4.91	–	–	–	CN(C)CC(=O)NC1Cc2ccc(NC(=O)c3ccccc3-c3ccc(C(F)(F)F)cc3)cc2C1 (stereo not drawn) [Example 77]
7.40	6.22	–	–	–	Cc1cccc(C(=O)Nc2ccc3c(c2)CC(NCc2cccs2)C3)c1-c1ccc(C(F)(F)F)cc1 (stereo not drawn) [Example 52]
5.98	–	–	–	–	O=C(Nc1ccc2c(c1)CC(NS(=O)(=O)c1ccc(F)cc1)C2)c1ccccc1-c1ccc(C(F)(F)F)cc1 (stereo not drawn) [Example 99]
5.82	5.04	–	–	–	CCOC(=O)N[C@H]1Cc2ccc(NC(=O)c3cccc(C)c3-c3ccc(C(F)(F)F)cc3)cc2C1 [Example 82]
6.15	5.01	–	–	–	CCOC(=O)NC1Cc2ccc(NC(=O)c3cccc(OC)c3-c3ccc(C(F)(F)F)cc3)cc2C1 (stereo not drawn) [Example 83]
6.49	4.61	–	–	–	Cc1cccc(C(=O)Nc2ccc3c(c2)CC(NS(=O)(=O)c2ccc(Cl)cc2)C3)c1-c1ccc(C(F)(F)F)cc1 (stereo not drawn) [Example 98]
5.88	–	–	–	–	CCOC(=O)NC1Cc2ccc(NC(=O)c3ccccc3-c3ccc(C(F)(F)F)cc3)cc2C1 (stereo not drawn) [Example 81]
5.49	–	–	–	–	Cc1cccc(C(=O)Nc2ccc3c(c2)C[C@H](NC(=O)c2ccno2)C3)c1-c1ccc(C(F)(F)F)cc1 [Example 80]
5.72	–	–	–	–	O=C(COc1ccccc1)NC1Cc2ccc(NC(=O)c3ccccc3-c3ccc(C(F)(F)F)cc3)cc2C1 (stereo not drawn) [Example 78]
6.69	–	–	–	–	O=C(Nc1ccc2c(c1)C[C@H](NS(=O)(=O)c1ccccc1)C2)c1ccccc1-c1ccc(C(F)(F)F)cc1 [Example 89]
7.23	4.79	–	–	–	O=C(Nc1ccc2c(c1)CC(NS(=O)(=O)c1cccs1)C2)c1cccc(F)c1-c1ccc(C(F)(F)F)cc1 (stereo not drawn) [Example 91]
